Results taken from patent US12428378B2, “Methods and materials for increasing level of phosphorylated AMPK protein” (University of Pittsburgh—Of the Commonwealth System of …, priority 2019, dated 2025).
“And” between values parts separate entries of the source, which are not always exact repeats. Equal entries are not always repeated. Where two headings read alike, the source gives them in different places.

Key:
[1] = test system: methicillin resistant Staphylococcus aureus (strain ATCC 33591); assay: Antimicrobial efficacy against MRSA lung infection in neutropenic BALB/c mice; assay type: in vivo; conditions: 25 mg/kg orally once a day, days -4 to 0; lungs 24 hours after inoculation; p<0.01 compared to vehicle
Description: Groups of 5-10 female BALB/c mice weighing 20±2 g were used in this study. Animals were rendered immune suppressed by treatment with 250 mg/kg of cyclophosphamide IP at 4 and 2 days before infection (Day −4 and −2). Vehicle 10% DMA (N,N-dimethylacetamide):40% PEG300:50% H2O) and/or test substances were administered on days −4, −3, −2, −1 and 0.
On day 0, immediately following the final dose, animals were inoculated intranasally (0.02 mL/lung) with 1-5×10^6 colony forming units (CFU)/mouse of MRSA (ATCC 33591) after being anaesthetized by etomidate (20 mg/kg dose, IV). In addition, following the final dose, blood was collected at 0, 0.5 h, 1 h, 2 h, 4 h and 24 h from three animals of each group, via facial veins. Terminal blood samples were taken by cardiac puncture. Blood samples were drawn into K2EDTA anti-coagulant coated mini collection tubes. The blood was collected from group 1 after sacrifice as the blank for PK analysis. Samples were stored on ice for no more than one hour then centrifuged at 2500×g for 15 min at 4° C. Plasma (˜50 μL) was stored at −80° C. until analysis.
At 24 hours after inoculation, the animals were humanely euthanized with CO2 asphyxiation, and the lung tissue was harvested from each of the test animals. The tissues were homogenized in 1 mL of PBS. […]

[2] = Plasma exposure and PK of compound 63 in mouse plasma (HPLC-MS/MS); assay type: in vivo
pAMPK = pAMPK immunostaining chemiluminescence assay in Beas2B cells; assay type: cell-based; conditions: Homo sapiens, BEAS-2B, 18 h, DMEM no glucose media, compounds 3-34, 36-44, 47-60 tested as HCl salts, read-out: efficacy (minimal compound concentration needed to increase pAMPK by 30%)
Description: Beas2B cells were plated in 384 white nunc plate (4000 cells per well) for overnight. Compounds were serially diluted in DMEM no glucose media using the liquid handler. Cells were washed once using Biotek EL406 before compound addition for additional 18 hours. Cells were washed and fixed with PFA before immunostained with pAMPK primary antibody and anti-Rabbit HRP secondary antibody. Finally, 25 μl of ECL reagent will be added to cells, and chemical luminescence signal will be counted using plate reader. Compounds efficacies (μM) were determined by the minimal compound concentration needed to increase pAMPK by 30%. Activity: “+” equals >10 μM; “++” equals between ≤10 μM and >1 μM; and “+++” equals ≤1 μM.

Cc1ccccc1CN(CCCOc1ccc(C(F)(F)F)cc1)Cc1cccnc1 [compound 63]
clearance of MRSA from the lung (CFU) [1]: cleared MRSA from the lung
Sample concentration, individual animals ([2]; 25 mg/kg PO QD x 5, time 0 h, 25 mg/kg): 3 ng/mL and 0 ng/mL (2×)
Sample concentration, individual animals ([2]; 25 mg/kg PO QD x 5, time 0.5 h, 25 mg/kg): 180 ng/mL and 243 ng/mL and 390 ng/mL
Sample concentration, individual animals ([2]; 25 mg/kg PO QD x 5, time 1 h, 25 mg/kg): 95 ng/mL and 120 ng/mL
Sample concentration, individual animals ([2]; 25 mg/kg PO QD x 5, time 2 h, 25 mg/kg): 16 ng/mL and 36 ng/mL and 31 ng/mL
Sample concentration, individual animals ([2]; 25 mg/kg PO QD x 5, time 4 h, 25 mg/kg): 22 ng/mL and 38 ng/mL and 18 ng/mL
Sample concentration, individual animals ([2]; 25 mg/kg PO QD x 5, time 24 h, 25 mg/kg): 7 ng/mL and 0 ng/mL and 3 ng/mL
AUC(0-inf) ([2]; BALB/c, dose PO 25 mg/kg): 622 ng·h/mL
AUC(0-t) ([2]; BALB/c, dose PO 25 mg/kg): 593 ng·h/mL
Cmax ([2]; BALB/c, dose PO 25 mg/kg): 271 ng/mL
Tmax ([2]; BALB/c, dose PO 25 mg/kg): 30 min
concentration at 0 h ([2]; BALB/c, mouse, plasma, po, 25 mg/kg, 25 mg/kg PO QD x 5, time 0 h, excluded from the PK calculation, read-out: Sample concentration, mean): 1 ng/mL
concentration at 0.5 h ([2]; BALB/c, mouse, plasma, po, 25 mg/kg, 25 mg/kg PO QD x 5, time 0.5 h, read-out: Sample concentration, mean): 271 ng/mL
concentration at 1 h ([2]; BALB/c, mouse, plasma, po, 25 mg/kg, 25 mg/kg PO QD x 5, time 1 h, read-out: Sample concentration, individual animals): 184 ng/mL
concentration at 1 h ([2]; BALB/c, mouse, plasma, po, 25 mg/kg, 25 mg/kg PO QD x 5, time 1 h, read-out: Sample concentration, mean): 133 ng/mL
concentration at 2 h ([2]; BALB/c, mouse, plasma, po, 25 mg/kg, 25 mg/kg PO QD x 5, time 2 h, read-out: Sample concentration, mean): 28 ng/mL
concentration at 4 h ([2]; BALB/c, mouse, plasma, po, 25 mg/kg, 25 mg/kg PO QD x 5, time 4 h, read-out: Sample concentration, mean): 26 ng/mL
concentration at 24 h ([2]; BALB/c, mouse, plasma, po, 25 mg/kg, 25 mg/kg PO QD x 5, time 24 h, read-out: Sample concentration, mean): 3 ng/mL
AUC/D ([2]; dose PO 25 mg/kg): 25 kg·ng·h/mL/mg
AUCExtr ([2]; dose PO 25 mg/kg): 5%
MTR ([2]; dose PO 25 mg/kg): 4.96 h
EC (30% increase) (pAMPK): ≤ 1 µM

Cn1ccnc1C1Cc2ccccc2CN1CC(O)COc1ccc(C(F)(F)F)cc1 (stereo not shown) [compound 149]
EC (30% increase) (pAMPK): 1 to 10 µM

FC(F)(F)c1ccc(OCCCN2Cc3ccccc3C[C@@H]2c2cccnc2)cc1 [compound 150]
EC (30% increase) (pAMPK): 1 to 10 µM

FC(F)(F)c1ccc(OCCCN2Cc3ccccc3C[C@H]2c2cccnc2)cc1 [compound 151]
EC (30% increase) (pAMPK): ≤ 1 µM

Cc1ccccc1CN(CC(O)COc1ccc(C(F)(F)F)cc1)C(=O)c1ccnn1C (stereo not shown) [compound 152]
EC (30% increase) (pAMPK): 1 to 10 µM

Cn1cncc1C(=O)N(Cc1ccccc1F)CC(O)COc1ccc(C(F)(F)F)cc1 (stereo not shown) [compound 153]
EC (30% increase) (pAMPK): 1 to 10 µM

Cc1ccccc1CN(CCOc1ccc(C(F)(F)F)cc1)Cc1cccnc1 [compound 154]
EC (30% increase) (pAMPK): ≤ 1 µM

FC(F)(F)c1ccc(OCCN(Cc2cccnc2)Cc2ccccc2Cl)cc1 [compound 155]
EC (30% increase) (pAMPK): ≤ 1 µM

Fc1ccccc1CN(CCOc1ccc(C(F)(F)F)cc1)Cc1cccnc1 [compound 156]
EC (30% increase) (pAMPK): ≤ 1 µM

Cn1ccnc1CN(CCOc1ccc(C(F)(F)F)cc1)Cc1ccccc1Cl [compound 157]
EC (30% increase) (pAMPK): ≤ 1 µM

Cn1ccnc1CN(CCOc1ccc(C(F)(F)F)cc1)Cc1ccccc1F [compound 158]
EC (30% increase) (pAMPK): ≤ 1 µM

Cn1cncc1CN(CCOc1ccc(C(F)(F)F)cc1)Cc1ccccc1Cl [compound 159]
EC (30% increase) (pAMPK): ≤ 1 µM

Cn1cncc1CN(CCOc1ccc(C(F)(F)F)cc1)Cc1ccccc1F [compound 160]
EC (30% increase) (pAMPK): ≤ 1 µM

Cn1cncc1C(=O)N(CC(=O)COc1ccc(C(F)(F)F)cc1)Cc1ccccc1Cl [compound 161]
EC (30% increase) (pAMPK): ≤ 1 µM

Cc1ccccc1CN(CC(O)COc1ccc(C(F)(F)F)cc1)C(C)c1nccn1C (stereo not shown) [compound 162]
EC (30% increase) (pAMPK): > 10 µM

[2H]C(C)(c1cccnc1)N(Cc1ccccc1Cl)CC(O)COc1ccc(C(F)(F)F)cc1 (stereo not shown) [compound 163]
EC (30% increase) (pAMPK): > 10 µM

FC(COc1ccc(C(F)(F)F)cc1)CN(Cc1cccnc1)Cc1ccccc1Cl (stereo not shown) [compound 164]
EC (30% increase) (pAMPK): ≤ 1 µM

Cc1ccccc1CN(Cc1cccnc1)CC(F)COc1ccc(C(F)(F)F)cc1 (stereo not shown) [compound 165]
EC (30% increase) (pAMPK): ≤ 1 µM

Cn1cncc1C(=O)N(CCCOc1cnc(C(F)(F)F)nc1)Cc1ccccc1Cl [compound 168]
EC (30% increase) (pAMPK): > 10 µM

Cc1ccccc1CN(CCCOc1cnc(C(F)(F)F)nc1)Cc1cccnc1 [compound 169]
EC (30% increase) (pAMPK): ≤ 1 µM

Cc1ccccc1CN(CCOc1ccc(C(F)(F)F)cc1)Cc1cncn1C [compound 171]
EC (30% increase) (pAMPK): 1 to 10 µM

FC(F)(F)c1ccc(OCCN(Cc2cncs2)Cc2ccccc2Cl)cc1 [compound 172]
EC (30% increase) (pAMPK): ≤ 1 µM

Fc1ccccc1CN(CCOc1ccc(C(F)(F)F)cc1)Cc1cncs1 [compound 173]
EC (30% increase) (pAMPK): ≤ 1 µM

FC(F)(F)c1ccc(OCCCN(Cc2cccnc2)Cc2ccccc2C(F)(F)F)cc1 [compound 174]
EC (30% increase) (pAMPK): ≤ 1 µM

Cn1ccnc1C1Cc2ccccc2CN1CCCOc1ccc(C(F)(F)F)cc1 (stereo not shown) [compound 175]
EC (30% increase) (pAMPK): ≤ 1 µM

Cc1ccccc1CN(CC(O)COc1ccc(C(F)(F)F)cc1)C(C)c1cncs1 (stereo not shown) [compound 176]
EC (30% increase) (pAMPK): 1 to 10 µM

[2H]C(C)(c1cccnc1)N(Cc1ccccc1C)CC(O)COc1ccc(C(F)(F)F)cc1 (stereo not shown) [compound 177]
EC (30% increase) (pAMPK): > 10 µM

CC1(c2cccnc2)Cc2ccccc2CN1CC(O)COc1ccc(C(F)(F)F)cc1 (stereo not shown) [compound 178]
EC (30% increase) (pAMPK): ≤ 1 µM

Cc1ccccc1CN(Cc1cccnn1)CC(C)(C)COc1ccc(C(F)(F)F)cc1 [compound 181]
EC (30% increase) (pAMPK): ≤ 1 µM

Cc1ccccc1CN(CCCOc1ccc(C(F)(F)F)cc1)Cc1ccnnc1 [compound 182]
EC (30% increase) (pAMPK): ≤ 1 µM

Cc1ccccc1CN(CCCOc1ccc(C(F)(F)F)cc1)Cc1cccnn1 [compound 183]
EC (30% increase) (pAMPK): ≤ 1 µM

CC(C)(COc1ccc(C(F)(F)F)cc1)CN(Cc1cccnc1)Cc1cccnc1 [compound 184]
EC (30% increase) (pAMPK): ≤ 1 µM

CC(C)(COc1ccc(C(F)(F)F)cc1)CN(Cc1cccnc1)Cc1ccccc1F [compound 185]
EC (30% increase) (pAMPK): ≤ 1 µM

CC(C)(COc1ccc(C(F)(F)F)cc1)CN(Cc1cccnc1)Cc1ccccc1Cl [compound 186]
EC (30% increase) (pAMPK): ≤ 1 µM

COC(=O)C1c2ccccc2CCN1CCCOc1ccc(C(F)(F)F)cc1 (stereo not shown) [compound 187]
EC (30% increase) (pAMPK): ≤ 1 µM

OCC1c2ccccc2CCN1CCCOc1ccc(C(F)(F)F)cc1 (stereo not shown) [compound 188]
EC (30% increase) (pAMPK): ≤ 1 µM

Cc1ccc2c(c1)CC(c1nccn1C)N(CC(O)COc1ccc(C(F)(F)F)cc1)C2 (stereo not shown) [compound 189]
EC (30% increase) (pAMPK): > 10 µM

Cc1ccccc1CN(Cc1cccnc1)CC(C)(C)COc1cnc(C(F)(F)F)nc1 [compound 190]
EC (30% increase) (pAMPK): 1 to 10 µM

Cc1ccccc1CN(Cc1cccnc1)CC(C)COc1ccc(C(F)(F)F)cc1 (stereo not shown) [compound 191]
EC (30% increase) (pAMPK): ≤ 1 µM

Cc1ccccc1CN(CC(C)(C)COc1ccc(C(F)(F)F)cc1)C(=O)c1cncn1C [compound 192]
EC (30% increase) (pAMPK): ≤ 1 µM

Cn1cncc1C(=O)N(Cc1cccnc1)CC(C)(C)COc1ccc(C(F)(F)F)cc1 [compound 193]
EC (30% increase) (pAMPK): ≤ 1 µM

Cn1cncc1C(=O)N(Cc1ccccc1Cl)CC(C)(C)COc1ccc(C(F)(F)F)cc1 [compound 194]
EC (30% increase) (pAMPK): ≤ 1 µM

Cc1ccccc1CN(CC(C)COc1ccc(C(F)(F)F)cc1)C(=O)c1cncn1C (stereo not shown) [compound 195]
EC (30% increase) (pAMPK): ≤ 1 µM

CC(C)(COc1cnc(C(F)(F)F)nc1)CN(Cc1cccnc1)Cc1ccccc1C(F)(F)F [compound 196]
EC (30% increase) (pAMPK): 1 to 10 µM

CC(C)(COc1ccc(C(F)(F)F)cc1)CN(Cc1cccnc1)Cc1ccccc1C(F)(F)F [compound 197]
EC (30% increase) (pAMPK): ≤ 1 µM

Cc1ccccc1CN(CC(O)COc1ccc(C(F)(F)F)cc1)[C@@H](c1cccnc1)C(F)(F)F (stereo partly shown) [compound 198]
EC (30% increase) (pAMPK): > 10 µM

Cn1ccnc1C1c2ccccc2CCN1CCCOc1ccc(C(F)(F)F)cc1 (stereo not shown) [compound 199]
EC (30% increase) (pAMPK): 1 to 10 µM

Cc1ccccc1CN(Cc1cccnc1)CC(C)(O)COc1ccc(C(F)(F)F)cc1 (stereo not shown) [compound 200]
EC (30% increase) (pAMPK): ≤ 1 µM

Cn1cncc1C(=O)N(Cc1ccccc1Cl)CC(C)(O)COc1ccc(C(F)(F)F)cc1 (stereo not shown) [compound 201]
EC (30% increase) (pAMPK): 1 to 10 µM
